# Results as given in the supplement of paper PMC10307832.
# Legend:
# Experiment in all cases: relative viability (nuclei count vs DMSO), 5 days (fraction); higher = more cells survive
# CX-5461 + Palbociclib = compound: Cc1cnc(CNC(=O)c2c(=O)c3ccc(N4CCCN(C)CC4)nc3n3c2sc2ccccc23)cn1 [CX-5461] + CC(=O)c1c(C)c2cnc(Nc3ccc(N4CCNCC4)cn3)nc2n(C2CCCC2)c1=O [Palbociclib] (partner 0.5 µM)
# Summary of the method: (§1)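 For relative viability, nuclei counts in treated wells were divided by those in vehicle wells. Lung cancer cell lines had been pin-tool dosed in 1536-well plates the day after seeding and cultured for 5 days, then fixed and stained in one step (final 0.05% Triton X-100, 1% formaldehyde, 1 ug/ml Hoechst) and imaged at 4×. Doses were one drug alone or a fixed anchor-drug dose plus five library-drug doses (not always all listed) in √10 steps, and values are duplicate-plate medians.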
# IMD-0354 + Palbociclib = compound: O=C(Nc1cc(C(F)(F)F)cc(C(F)(F)F)c1)c1cc(Cl)ccc1O [IMD-0354] + CC(=O)c1c(C)c2cnc(Nc3ccc(N4CCNCC4)cn3)nc2n(C2CCCC2)c1=O [Palbociclib] (partner 0.5 µM)
# Summary of the method: as §1
# CX-5461 + Luminespib = compound: Cc1cnc(CNC(=O)c2c(=O)c3ccc(N4CCCN(C)CC4)nc3n3c2sc2ccccc23)cn1 [CX-5461] + CCNC(=O)c1noc(-c2cc(C(C)C)c(O)cc2O)c1-c1ccc(CN2CCOCC2)cc1 [Luminespib] (partner 0.01 µM)
# Summary of the method: as §1
# CX-5461 + AZD7762 = compound: Cc1cnc(CNC(=O)c2c(=O)c3ccc(N4CCCN(C)CC4)nc3n3c2sc2ccccc23)cn1 [CX-5461] + NC(=O)Nc1cc(-c2cccc(F)c2)sc1C(=O)N[C@H]1CCCNC1 [AZD7762] (partner 0.2 µM)
# Summary of the method: as §1
Cell Line,relative viability (CX-5461 + Palbociclib; first compound 0.01 µM),relative viability (CX-5461 + Palbociclib; first compound 0.03162 µM),relative viability (CX-5461 + Palbociclib; first compound 0.1 µM),relative viability (CX-5461 + Palbociclib; first compound 0.3162 µM),relative viability (CX-5461 + Palbociclib; first compound 1 µM),relative viability (IMD-0354 + Palbociclib; first compound 0.04 µM),relative viability (IMD-0354 + Palbociclib; first compound 0.1265 µM),relative viability (IMD-0354 + Palbociclib; first compound 0.4 µM),relative viability (IMD-0354 + Palbociclib; first compound 1.265 µM),relative viability (IMD-0354 + Palbociclib; first compound 4 µM),relative viability (CX-5461 + Luminespib; first compound 0.01 µM),relative viability (CX-5461 + Luminespib; first compound 0.03162 µM),relative viability (CX-5461 + Luminespib; first compound 0.1 µM),relative viability (CX-5461 + Luminespib; first compound 0.3162 µM),relative viability (CX-5461 + Luminespib; first compound 1 µM),relative viability (CX-5461 + AZD7762; first compound 0.01 µM),relative viability (CX-5461 + AZD7762; first compound 0.03162 µM),relative viability (CX-5461 + AZD7762; first compound 0.1 µM),relative viability (CX-5461 + AZD7762; first compound 0.3162 µM),relative viability (CX-5461 + AZD7762; first compound 1 µM)
NCI-H1944,0.335,0.362,0.338,0.294,0.317,0.289,0.324,0.341,0.382,0.139,0.854,0.711,0.864,0.51,0.672,0.444,0.512,0.358,0.269,0.195
NCI-H1734,0.325,0.391,0.34,0.317,0.292,0.352,0.352,0.314,0.232,0.196,0.182,0.148,0.193,0.173,0.157,0.583,0.602,0.317,0.327,0.286
LXF-289,0.596,0.592,0.629,,0.592,0.565,0.61,0.454,0.435,0.0922,0.627,0.798,0.823,0.732,0.662,1.16,1.12,1.08,,0.873
H3255,0.282,0.353,0.299,0.305,0.302,0.33,0.331,0.306,0.275,0.274,0.896,0.859,0.932,0.811,0.941,0.967,0.82,0.943,0.834,0.794
201T,0.35,0.344,0.363,0.355,0.35,0.35,0.387,0.294,0.375,0.28,1.05,1.04,1.05,1.06,1.11,0.6,0.682,0.621,0.543,0.491
NCI-H2126,0.351,0.351,0.358,0.351,0.365,0.35,0.361,0.364,0.316,0.311,0.883,0.848,0.908,0.847,0.411,1.1,1.05,0.981,1.05,0.903
HOP-62,0.415,0.446,0.461,0.413,0.415,0.454,0.39,0.299,0.266,0.0933,0.849,0.921,0.905,0.973,0.917,0.643,0.854,0.424,0.194,0.356
CAL-12T,0.49,0.511,0.448,0.347,0.121,0.633,0.423,0.325,0.189,0.164,0.302,0.534,0.31,1.51,0.24,0.715,0.658,0.601,0.698,0.449
NCI-H1755,0.434,0.449,0.431,0.447,0.466,0.448,0.456,0.419,0.396,0.224,0.383,0.357,0.482,0.402,0.512,0.453,0.447,0.38,0.413,0.406
